# Assay results taken from PubChem BioAssay AID1963976 (Molecular Pharmacology Branch, DTP, NCI, 2024).
# pIC50: −log10 of the molar value.
# System: 435261-313-R-J1-PDC tumor spheroid viability
# Test: Anticancer human tumor 435261-313-R-J1-PDC patient-derived colon adenocarcinoma cell line growth inhibition [PI3K]
# Conditions: spheroids with HUVEC and MSC; for pIC50: curve of first compound; for viability, T/C: stronger effect = lower value
# Procedure, shortened: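 Spheroid viability read-out. Co-cultures contained the tumor line plus HUVEC and human MSCs. Each agent was paired with a PI3K inhibitor (inavolisib, alpelisib, duvelisib, copanlisib) across half-log dilutions starting at clinical Cmax, or at 10 microM when Cmax was unknown.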
# [1] = second compound 0.00316 µM, first compound 0.0316 µM
# [2] = second compound 0.00316 µM, first compound 0.1 µM
# [3] = second compound 0.00316 µM, first compound 0.316 µM
# [4] = second compound 0.00316 µM, first compound 1 µM
# [5] = second compound 0.00316 µM, first compound 3.16 µM
# [6] = second compound 0.00316 µM, first compound 10 µM
# [7] = second compound 0.01 µM, first compound 0.0316 µM
# [8] = second compound 0.01 µM, first compound 0.1 µM
# [9] = second compound 0.01 µM, first compound 0.316 µM
# [10] = second compound 0.01 µM, first compound 1 µM
# [11] = second compound 0.01 µM, first compound 3.16 µM
# [12] = second compound 0.01 µM, first compound 10 µM
# [13] = second compound 0.0316 µM, first compound 0.0316 µM
# [14] = second compound 0.0316 µM, first compound 0.1 µM
# [15] = second compound 0.0316 µM, first compound 0.316 µM
# [16] = second compound 0.0316 µM, first compound 1 µM
# [17] = second compound 0.0316 µM, first compound 3.16 µM
# [18] = second compound 0.0316 µM, first compound 10 µM
# [19] = second compound 0.1 µM, first compound 0.0316 µM
# [20] = second compound 0.1 µM, first compound 0.1 µM
# [21] = second compound 0.1 µM, first compound 0.316 µM
# [22] = second compound 0.1 µM, first compound 1 µM
# [23] = second compound 0.1 µM, first compound 3.16 µM
# [24] = second compound 0.1 µM, first compound 10 µM
# [25] = second compound 0.316 µM, first compound 0.0316 µM
# [26] = second compound 0.316 µM, first compound 0.1 µM
# [27] = second compound 0.316 µM, first compound 0.316 µM
# [28] = second compound 0.316 µM, first compound 1 µM
# [29] = second compound 0.316 µM, first compound 3.16 µM
# [30] = second compound 0.316 µM, first compound 10 µM
# [31] = second compound 1 µM, first compound 0.0316 µM
# [32] = second compound 1 µM, first compound 0.1 µM
# [33] = second compound 1 µM, first compound 0.316 µM
# [34] = second compound 1 µM, first compound 1 µM
# [35] = second compound 1 µM, first compound 3.16 µM
# [36] = second compound 1 µM, first compound 10 µM
# 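Also: spheroids exposed to compounds for 7 days.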
compound,measurement,setting,value
CCCS(=O)(=O)Nc1ccc(F)c(C(=O)c2c[nH]c3ncc(-c4ccc(Cl)cc4)cc23)c1F + COc1c(OCCCN2CCOCC2)ccc2c3n(c(=NC(=O)c4cnc(N)nc4)nc12)CCN3,pIC50,second compound 0.00316 µM,5.34
same,pIC50,second compound 0.01 µM,5.52
same,pIC50,second compound 0.0316 µM,> 7.50
same,pIC50,second compound 0.1 µM,> 7.50
same,pIC50,second compound 0.316 µM,> 7.50
same,pIC50,second compound 1 µM,> 7.50
same,"viability, T/C",[1],66.6%
same,"viability, T/C",[2],77.1%
same,"viability, T/C",[3],103%
same,"viability, T/C",[4],83.7%
same,"viability, T/C",[5],72.4%
same,"viability, T/C",[6],4.06%
same,"viability, T/C",[7],46.7%
same,"viability, T/C",[8],71.3%
same,"viability, T/C",[9],70.8%
same,"viability, T/C",[10],91.2%
same,"viability, T/C",[11],49.1%
same,"viability, T/C",[12],4.19%
same,"viability, T/C",[13],25.7%
same,"viability, T/C",[14],40.4%
same,"viability, T/C",[15],27.9%
same,"viability, T/C",[16],33.9%
same,"viability, T/C",[17],31.7%
same,"viability, T/C",[18],5.4%
same,"viability, T/C",[19],24.7%
same,"viability, T/C",[20],18.1%
same,"viability, T/C",[21],22%
same,"viability, T/C",[22],26.3%
same,"viability, T/C",[23],22.1%
same,"viability, T/C",[24],4.42%
same,"viability, T/C",[25],7.13%
same,"viability, T/C",[26],9.16%
same,"viability, T/C",[27],10.6%
same,"viability, T/C",[28],13.5%
same,"viability, T/C",[29],13.9%
same,"viability, T/C",[30],4.25%
same,"viability, T/C",[31],4.51%
same,"viability, T/C",[32],3.63%
same,"viability, T/C",[33],4.99%
same,"viability, T/C",[34],5.37%
same,"viability, T/C",[35],7.06%
same,"viability, T/C",[36],2.69%
CNC(=O)c1ccc(N2C(=S)N(c3ccc(C#N)c(C(F)(F)F)c3)C(=O)C2(C)C)cc1F + COc1c(OCCCN2CCOCC2)ccc2c3n(c(=NC(=O)c4cnc(N)nc4)nc12)CCN3,pIC50,second compound 0.00316 µM,5.05
same,pIC50,second compound 0.01 µM,> 7.50
same,pIC50,second compound 0.0316 µM,> 7.50
same,pIC50,second compound 0.1 µM,> 7.50
same,pIC50,second compound 0.316 µM,> 7.50
same,pIC50,second compound 1 µM,> 7.50
same,"viability, T/C",[1],71.2%
same,"viability, T/C",[2],80.3%
same,"viability, T/C",[3],40.8%
same,"viability, T/C",[4],63.6%
same,"viability, T/C",[5],66.3%
same,"viability, T/C",[6],42.7%
same,"viability, T/C",[7],33.4%
same,"viability, T/C",[8],46.7%
same,"viability, T/C",[9],51.3%
same,"viability, T/C",[10],48.2%
same,"viability, T/C",[11],45.4%
same,"viability, T/C",[12],39.7%
same,"viability, T/C",[13],33.8%
same,"viability, T/C",[14],29.1%
same,"viability, T/C",[15],29.9%
same,"viability, T/C",[16],27.3%
same,"viability, T/C",[17],23%
same,"viability, T/C",[18],22.4%
same,"viability, T/C",[19],16.1%
same,"viability, T/C",[20],13.9%
same,"viability, T/C",[21],14.9%
same,"viability, T/C",[22],15%
same,"viability, T/C",[23],15.4%
same,"viability, T/C",[24],15.3%
same,"viability, T/C",[25],8.96%
same,"viability, T/C",[26],8.69%
same,"viability, T/C",[27],7.55%
same,"viability, T/C",[28],9.53%
same,"viability, T/C",[29],7.67%
same,"viability, T/C",[30],8.88%
same,"viability, T/C",[31],4.12%
same,"viability, T/C",[32],4.26%
same,"viability, T/C",[33],4.87%
same,"viability, T/C",[34],4.38%
same,"viability, T/C",[35],5.02%
same,"viability, T/C",[36],5.37%
